Results on two molecules are retold here after patent US8022103B2, “Ester prodrugs of prostratin and related phorbol compounds” (Salvia Sciences, Inc., priority 2005, dated 2011).

In brackets after ≈: the same amount, converted by molar mass. Read-outs that look alike come from different tables or passages of the source.

One series deals with SIVMac251. Kind of series: PBMC antiviral assay, SIVMac251. Format: cell-based, SIV. To be noted: SIVMac251, human PBMCs. The procedure:
Compounds SA-101A and SA-101B were tested for antiviral activity against HIV-1 in peripheral blood mononuclear cells (PBMC) acutely infected with the HIV-1 isolates. PBMCs were derived from normal HIV-1 negative donors, and cultured under conditions which promote cell survival and HIV replication. Fresh human blood was obtained commercially from Biological Specialty Corporation (Colmar, Pa.). The low passage clinical isolates HIV-1Ba-L, HIVIIIB, and SIVmac251 were from the NIAID AIDS Research and Reference Reagent Program. Immediately before use, pre-titered aliquot of the viruses were removed from storage in a freezer (−80° C.) and thawed rapidly to room temperature in a biological safety cabinet. Phytohemagglutinin (PHA-P) was obtained from Sigma (St. Louis, Mo.) and recombinant IL-2 was obtained from R&D Systems Inc. (Minneapolis, Minn.). Antiviral activity was tested from a high-test concentration of 100 μM or 100 μg/ml with nine ½-log serial dilutions of the compound to derive applicable IC50 (concentration inhibition virus replication by 50%), IC90 (concentration inhibition virus replication by 90%), TC50 (concentration decreasing cell viability by 50%) and TI (therapeutic index: TC50/IC50) values.
Preparation of PMBC. Fresh Human PBMCs, Seronegative for HIV and HBV, were isolated from screened donors (Interstate Blood Bank, Inc. Memphis, Tenn.). Cells were pelleted/washed 2-3 times by low speed centrifugation and resuspensded in PBS to remove contaminating platelets. The leukophoresed blood was then diluted 1:1 with Dulbecco's Phosphate Buffered Saline (DPBS) and layered over 14 mL of Lymphocyte Separation Medium (LSM; Cellgro® by Mediatech, Inc.; density 1.078+/−0.002 g/ml; Cat. # 85-072-CL) in a 50 mL centrifuge tube and then centrifuged for 30 minutes at 600×g. […]
PMBC assay. […] Pooling (mixing) of mononuclear cells from more than one donor is used to minimize the variability observed between individual donors, which results from quantitative and qualitative differences in HIV infection and overall response to the PHA and IL-2 of primary lymphocyte populations. […]

The subject of series [1] is cell line ET (luc-ubi-neo/ET), human Huh7 hepatoma. Kind of series: CytoTox-ONE cytotoxicity in ET (luc-ubi-neo/ET) Huh7 cells. Format: cell-based. As to the method:
Luciferase assay. The ET cell line is grown in Dulbecco's modified essential media (DMEM), 10% fetal bovine serum (FBS), 1% penicillin-streptomycin (pen-strep), 1% glutamine, […] G418 in a 5% CO2 incubator at 37° C. All cell culture reagents are from Gibco Life Technologies. Cells are trypsinized (1% trypsin:EDTA) and plated out at 5×10^3 cells/well in white 96-well assay plates (Costar) dedicated to cell number (cytotoxicity) or antiviral activity (Luc) assessments. Drugs are added at five half-log concentrations each and the assay is run in DMEM, 5% FBS, 1% pen-strep, 1% glutamine. Human interferon alpha-2b (PBL Biolabs, New Brunswick, N.J.) is included in each run as a positive control compound. […] Compound IC50 and IC90 values (antiviral activity) are derived from plots of HCV RNA levels assessed as HCV RNA replicon-derived Luc activity versus drug concentration using Steady-Glo assay reagent (Promega), with Luc luminescence read on a 1450 Microbeta liquid scintillation and luminescence counter. Compound TC50 and TC90 values (cytotoxicity) are calculated from plots of cell number vs. drug concentration using data from the CytoTox-ONE cell proliferation assay (Promega); with fluorescence read using an Analyst HT fluorometer. […] Compound selectivity indices (SI=TC/IC) SI50 and SI90 values are calculated from spreadsheets.

The next series deals with HCV RNA replicon. Kind of series: HCV RNA replicon luciferase assay. In kind it is cell-based. As to the method:
Compounds SA-101A and SA-101B were evaluated for their effect on HCV RNA replicons using an in vitro HCV virus replication system.
Compound preparation. Compounds were prepared as a powder (˜1 mg) and solubilized in DMSO. IFNα was used as a positive antiviral control.
HCV RNA replicon system. The assay for HCV replication employed cell line ET (luc-ubi-neo/ET), which is a human Huh7 hepatoma cell line that contains an HCV RNA replicon with a stable luciferase (Luc) reporter and three cell culture-adaptive mutations (Pietschmann et al., 2002, J. Virol. 76:4008-4021). […]
Luciferase assay. […] Compound IC50 and IC90 values (antiviral activity) are derived from plots of HCV RNA levels assessed as HCV RNA replicon-derived Luc activity versus drug concentration using Steady-Glo assay reagent (Promega), with Luc luminescence read on a 1450 Microbeta liquid scintillation and luminescence counter. Compound TC50 and TC90 values (cytotoxicity) are calculated from plots of cell number vs. drug concentration using data from the CytoTox-ONE cell proliferation assay (Promega); with fluorescence read using an Analyst HT fluorometer. […] Compound selectivity indices (SI=TC/IC) SI50 and SI90 values are calculated from spreadsheets.

The molecule `CC(=O)OC12CC(C)C3(O)C(C=C(COC(=O)CCC(=O)O)CC4(O)C(=O)C(C)=CC43)C1C2(C)C` (stereo not shown) [SA-101B, Prostratin Succinate] returned an IC90 in the series on SIVMac251 (40% Human AB serum) of over 1.00 µg/mL. Moreover, the Cytotoxicity entry in series [1] was “did not display any appreciable cytotoxicity”. On HCV RNA replicon (ET cell line, luciferase, 72 hr), the “EC50 (HCV RNA replicon)” value is on record as “EC50 was not reached”.

Turning to `CC(=O)O[C@@]12C[C@@H](C)[C@@]3(O)[C@@H](C=C(CO)C[C@]4(O)C(=O)C(C)=C[C@@H]34)[C@@H]1C2(C)C` [SA-101A, 12-deoxyphorbol 13-acetate], the midpoint of inhibition in the series with SIVMac251 (Simian immunodeficiency virus, PBMC), the IC50, lay at 0.39 µg/mL (≈ 0.999 µM). Besides, the IC90 in the series with SIVMac251 (Simian immunodeficiency virus, PBMC, read-out: IC90) came to 0.9 µg/mL (≈ 2.3 µM). In addition, in series [1], the Cytotoxicity entry was “did not appear to be active or cytotoxic”. For the same molecule, the “Inhibition of HCV RNA replicon associated luciferase activity” value in the series on HCV RNA replicon (lowest concentrations employed in the assay) is given as “greater than 50%”.
